Laboratory results as given in ChEMBL document CHEMBL1201862, “PubChem BioAssay data set” (2004).
Active and inactive are the calls of the source.

Key:
[1] = growth suppression of PTEN-null colon cells, dose response, cell-based, HCT116 PTEN knockout (AID 1047); format: functional;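 also: HCT116 colon tumor cells with PTEN knocked out; cells exposed to compound for 60 hours before readout; potency for loss of cell viability measured by luminescence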
[2] = growth suppression of beta-catenin-knockout colon cells, dose response, cell-based, HCT116, human colon tumor (AID 1045); format: functional;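 also: HCT116 colon tumor cells with beta catenin knocked out; cells exposed to compound for 60 hours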
[3] = target: T1, Calpain-2 catalytic subunit (Sus scrofa, UniProt P43367); assay: pig calpain II inhibitor potency, dose response, biochemical, fluorogenic peptide substrate (AID 1420); format: functional
T1 sequence (P43367 whole entry): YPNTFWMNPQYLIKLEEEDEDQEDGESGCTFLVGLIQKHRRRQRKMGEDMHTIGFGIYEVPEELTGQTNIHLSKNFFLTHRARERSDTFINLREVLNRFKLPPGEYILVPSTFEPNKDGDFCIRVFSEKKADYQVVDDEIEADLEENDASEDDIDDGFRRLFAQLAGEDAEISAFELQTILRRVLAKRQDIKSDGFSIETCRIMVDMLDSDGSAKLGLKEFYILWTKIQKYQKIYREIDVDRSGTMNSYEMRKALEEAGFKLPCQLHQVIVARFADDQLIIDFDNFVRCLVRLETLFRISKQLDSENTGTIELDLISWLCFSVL

[4] = target: T2, Endoribonuclease toxin MazF (Escherichia coli K-12, UniProt P0AE70); assay: MazF toxin RNase activators, dose response, biochemical, fluorescence, single-stranded RNA substrate, uHTS hits (AID 588481); format: functional
T2 sequence (P0AE70 whole entry): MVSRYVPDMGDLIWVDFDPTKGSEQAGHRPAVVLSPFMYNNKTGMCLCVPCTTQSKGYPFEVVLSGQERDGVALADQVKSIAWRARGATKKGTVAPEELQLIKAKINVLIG

[5] = target: T2, Endoribonuclease toxin MazF; assay: fluorescent RNA oligo signal without MazF, dose response, counter-screen for MazEF activator project, biochemical, fluorescence, single-stranded RNase substrate (AID 588502); format: functional
[6] = target: Voltage-dependent T-type calcium channel subunit alpha-1H (Homo sapiens, UniProt O95180); format: functional;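 also: channel activity triggered by adding a high calcium stimulation buffer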
[7] = target: T3, Ubiquitin-conjugating enzyme E2 N (Homo sapiens, UniProt P61088); format: functional;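 also: Dose-response confirmation in a TR-FRET assay detecting UBC13-driven polyubiquitin chain formation, inhibition measured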
T3 sequence (P61088 whole entry): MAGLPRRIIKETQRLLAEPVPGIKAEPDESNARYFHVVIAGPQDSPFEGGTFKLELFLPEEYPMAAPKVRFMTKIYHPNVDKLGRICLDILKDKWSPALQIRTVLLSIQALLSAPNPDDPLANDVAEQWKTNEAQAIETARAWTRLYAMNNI

[8] = microbe, parasite or virus in culture; format: functional; settings: Mycobacterium tuberculosis
H9c2 = assay: cells; format: functional, cell-based; settings: Rattus norvegicus, H9c2, Myocardium;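 also: confirmatory concentration-response retest of ultra-high-throughput screening hits for modulation of myocardial damage; cell death induced by hydrogen peroxide oxidative stress; compound pretreatment for 60 min then peroxide exposure for 2 h; potency is for protecting the cells against peroxide damage rather than for killing them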
[9] = inhibitors of intracellular T. cruzi replication, confirmation, NIH3T3 host cells, beta-gal luminescence (AID 2044); format: functional, cell-based;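 also: intracellular parasites grown in NIH/3T3 mouse fibroblasts as host cells; luminescent beta-galactosidase reporter signal from transgenic T. cruzi replicating inside host cells; inhibitors lower the luminescence signal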
[10] = cytotoxicity toward NIH3T3 fibroblasts, dose response, counter-screen, cell-based, ATP luminescence, mouse fibroblasts (AID 2010); format: functional;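 also: cells exposed to compound for about 90 hours before reading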
[11] = Luminescence Cell-Based Dose Retest to Confirm Inhibitors of Cancer Stem Cells. [Related pubchem assays (depositor defined):AID2717, AID2721]; format: functional; settings: Homo sapiens
[12] = target: T4, Carboxy-terminal domain RNA polymerase II polypeptide A small phosphatase 1 (Homo sapiens, UniProt Q9GZU7); assay: inhibitors of CTDSP1, concentration-response testing, biochemical assay, absorbance-based, actives from ultra-high-throughput screening (AID 540297); format: functional
T4 sequence (Q9GZU7 whole entry): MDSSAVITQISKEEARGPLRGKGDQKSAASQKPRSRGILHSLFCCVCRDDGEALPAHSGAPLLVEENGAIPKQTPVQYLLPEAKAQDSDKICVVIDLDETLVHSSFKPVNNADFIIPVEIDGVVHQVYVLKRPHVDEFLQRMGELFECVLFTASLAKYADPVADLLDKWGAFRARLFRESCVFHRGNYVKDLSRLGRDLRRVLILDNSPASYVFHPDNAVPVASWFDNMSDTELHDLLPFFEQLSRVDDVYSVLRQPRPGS

[13] = target: T5, Corticotropin-releasing factor receptor 2/Corticotropin-releasing factor-binding protein (Homo sapiens, UniProt P24387+Q13324); assay: activators of CRF receptor 2 with binding protein – uHTS hits, confirmation (AID 602473); format: functional; settings: read-out: EC50_Mean
T5 sequence (Q13324 whole entry): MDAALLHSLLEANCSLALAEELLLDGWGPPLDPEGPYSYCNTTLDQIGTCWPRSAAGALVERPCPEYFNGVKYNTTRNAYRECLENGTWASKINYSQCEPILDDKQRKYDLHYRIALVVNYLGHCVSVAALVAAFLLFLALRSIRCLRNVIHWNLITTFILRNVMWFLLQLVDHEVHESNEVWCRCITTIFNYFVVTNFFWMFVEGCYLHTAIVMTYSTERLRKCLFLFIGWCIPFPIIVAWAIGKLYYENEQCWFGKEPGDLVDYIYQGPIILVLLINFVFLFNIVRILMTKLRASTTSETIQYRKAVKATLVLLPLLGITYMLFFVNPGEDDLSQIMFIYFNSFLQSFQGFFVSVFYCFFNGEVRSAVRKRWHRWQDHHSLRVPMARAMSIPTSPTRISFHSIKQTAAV
T5 sequence (P24387 whole entry): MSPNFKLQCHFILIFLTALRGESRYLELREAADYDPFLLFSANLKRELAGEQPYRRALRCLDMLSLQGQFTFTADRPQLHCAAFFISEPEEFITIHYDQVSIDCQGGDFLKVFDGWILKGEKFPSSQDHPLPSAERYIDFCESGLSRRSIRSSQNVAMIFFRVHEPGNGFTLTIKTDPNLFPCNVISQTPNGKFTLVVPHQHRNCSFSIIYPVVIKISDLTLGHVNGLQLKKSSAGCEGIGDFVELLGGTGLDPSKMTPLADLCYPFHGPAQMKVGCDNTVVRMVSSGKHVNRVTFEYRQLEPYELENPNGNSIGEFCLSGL

Cytochrome P450 1A2 = target: T6, Cytochrome P450 1A2 (Homo sapiens, UniProt P05177);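 also: PubChem cytochrome P450 panel assay, CYP1A2 panel member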
T6 sequence (P05177 whole entry): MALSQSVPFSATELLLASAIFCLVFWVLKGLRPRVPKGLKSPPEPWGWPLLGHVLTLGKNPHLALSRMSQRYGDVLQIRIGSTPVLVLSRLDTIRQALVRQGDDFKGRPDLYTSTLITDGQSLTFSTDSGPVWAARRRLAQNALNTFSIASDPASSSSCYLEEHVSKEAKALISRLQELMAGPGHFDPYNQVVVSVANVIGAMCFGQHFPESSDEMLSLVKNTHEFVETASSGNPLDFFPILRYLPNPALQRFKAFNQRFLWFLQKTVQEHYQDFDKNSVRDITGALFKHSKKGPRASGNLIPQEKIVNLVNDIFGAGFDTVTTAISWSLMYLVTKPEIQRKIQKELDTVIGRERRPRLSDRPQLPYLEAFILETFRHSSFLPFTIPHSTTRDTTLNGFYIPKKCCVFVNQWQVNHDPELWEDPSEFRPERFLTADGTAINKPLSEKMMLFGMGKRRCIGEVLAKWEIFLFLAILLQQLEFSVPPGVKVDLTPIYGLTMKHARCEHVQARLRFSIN

[14] = P. falciparum Dd2 growth inhibitors, dose response, SYBR Green, cherry-picked samples (AID 1159567); format: functional, cell-based
[15] = HepG2 cell cytotoxicity, dose response, cytotoxicity control, cherry-picked samples (AID 1159577); format: functional, cell-based
[16] = inhibitors of HIV Env-driven cell fusion, dose response, cherry-pick (AID 652057); format: functional, cell-based
[17] = inhibitors of clade B AD8 Env fusion, dose response, cell-based, cherry-pick (AID 652062); format: functional;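 also: luciferase signal from cell-cell fusion driven by HIV-1 clade B AD8 Env; potency is for inhibitors of fusion seen as a drop in luminescence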

Sequence of Voltage-dependent T-type calcium channel subunit alpha-1H (O95180 whole entry): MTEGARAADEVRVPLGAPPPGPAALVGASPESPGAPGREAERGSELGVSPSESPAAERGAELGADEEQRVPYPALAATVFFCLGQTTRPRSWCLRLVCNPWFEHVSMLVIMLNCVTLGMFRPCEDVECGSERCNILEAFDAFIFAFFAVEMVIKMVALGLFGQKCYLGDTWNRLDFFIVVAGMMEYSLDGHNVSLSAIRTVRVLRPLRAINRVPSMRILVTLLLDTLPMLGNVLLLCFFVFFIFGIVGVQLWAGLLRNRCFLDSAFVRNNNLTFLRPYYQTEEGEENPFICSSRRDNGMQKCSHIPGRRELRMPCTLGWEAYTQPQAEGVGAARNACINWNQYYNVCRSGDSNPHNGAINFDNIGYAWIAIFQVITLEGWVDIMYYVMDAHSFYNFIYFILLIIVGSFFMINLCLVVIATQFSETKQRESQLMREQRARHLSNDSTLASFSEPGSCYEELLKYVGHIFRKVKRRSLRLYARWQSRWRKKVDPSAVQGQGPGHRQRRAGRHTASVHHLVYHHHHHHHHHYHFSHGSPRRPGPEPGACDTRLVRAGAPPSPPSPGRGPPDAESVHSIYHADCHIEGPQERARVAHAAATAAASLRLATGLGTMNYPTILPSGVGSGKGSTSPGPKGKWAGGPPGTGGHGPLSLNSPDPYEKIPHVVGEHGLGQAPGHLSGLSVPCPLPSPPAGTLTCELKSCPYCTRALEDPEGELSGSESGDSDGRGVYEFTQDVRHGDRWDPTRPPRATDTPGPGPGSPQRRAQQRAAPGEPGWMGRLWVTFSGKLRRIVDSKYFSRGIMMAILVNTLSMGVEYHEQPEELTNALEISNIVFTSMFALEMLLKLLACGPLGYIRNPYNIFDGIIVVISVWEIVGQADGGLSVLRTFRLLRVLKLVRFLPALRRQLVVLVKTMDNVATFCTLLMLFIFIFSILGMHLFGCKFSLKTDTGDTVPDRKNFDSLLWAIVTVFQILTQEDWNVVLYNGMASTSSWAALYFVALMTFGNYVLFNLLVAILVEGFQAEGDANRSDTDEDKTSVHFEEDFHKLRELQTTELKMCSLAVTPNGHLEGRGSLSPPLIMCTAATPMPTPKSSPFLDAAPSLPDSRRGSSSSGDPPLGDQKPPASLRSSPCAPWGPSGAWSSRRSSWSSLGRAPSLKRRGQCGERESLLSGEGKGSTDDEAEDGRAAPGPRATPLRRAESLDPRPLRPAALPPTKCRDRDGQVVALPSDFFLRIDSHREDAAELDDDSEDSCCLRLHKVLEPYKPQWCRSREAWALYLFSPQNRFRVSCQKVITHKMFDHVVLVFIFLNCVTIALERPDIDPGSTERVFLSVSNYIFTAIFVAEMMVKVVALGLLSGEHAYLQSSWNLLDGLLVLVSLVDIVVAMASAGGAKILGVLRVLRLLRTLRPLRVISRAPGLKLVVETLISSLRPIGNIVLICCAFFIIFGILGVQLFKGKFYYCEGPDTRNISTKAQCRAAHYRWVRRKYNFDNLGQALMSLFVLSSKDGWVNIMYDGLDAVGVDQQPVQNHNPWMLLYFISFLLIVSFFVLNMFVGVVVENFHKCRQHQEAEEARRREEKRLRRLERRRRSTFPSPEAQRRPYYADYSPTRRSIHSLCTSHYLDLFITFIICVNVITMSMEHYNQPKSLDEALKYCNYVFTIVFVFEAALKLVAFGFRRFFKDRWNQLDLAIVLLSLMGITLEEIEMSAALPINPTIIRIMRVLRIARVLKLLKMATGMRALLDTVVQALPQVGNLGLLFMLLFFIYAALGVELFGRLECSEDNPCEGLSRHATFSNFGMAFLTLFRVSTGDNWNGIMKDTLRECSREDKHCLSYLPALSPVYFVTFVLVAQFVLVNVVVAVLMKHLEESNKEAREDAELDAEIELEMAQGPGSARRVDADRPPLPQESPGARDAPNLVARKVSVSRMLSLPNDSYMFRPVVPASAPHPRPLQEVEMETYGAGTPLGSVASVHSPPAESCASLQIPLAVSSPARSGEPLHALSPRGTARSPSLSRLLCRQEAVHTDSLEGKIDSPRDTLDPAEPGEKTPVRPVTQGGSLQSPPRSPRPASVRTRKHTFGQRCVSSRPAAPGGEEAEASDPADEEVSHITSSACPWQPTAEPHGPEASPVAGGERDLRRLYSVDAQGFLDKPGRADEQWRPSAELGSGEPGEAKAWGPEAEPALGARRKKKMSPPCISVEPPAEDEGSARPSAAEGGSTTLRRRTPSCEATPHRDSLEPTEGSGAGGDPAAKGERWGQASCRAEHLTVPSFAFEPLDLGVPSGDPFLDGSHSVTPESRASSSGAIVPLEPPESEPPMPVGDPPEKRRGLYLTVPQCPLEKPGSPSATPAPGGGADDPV

Cc1ccc(C(NC(=O)N2CCOCC2)=C(Cl)Cl)cc1F
EC50 [1]: 6.69 µM (active) | EC50 [2]: 4.71 µM (active)

Cc1ccc(-c2cc(C(F)F)n3ncc(C(=O)Nc4c(C)nn(Cc5ccccc5Cl)c4C)c3n2)cc1
EC50 [1]: 8.84 µM (active) | EC50 [2]: 8.23 µM (active)

O=C(CCC(=O)N1CCN(S(=O)(=O)c2ccc(Cl)cc2)CC1)Nc1cccc(Br)c1
IC50 [3]: 24.9 µM (not active)

O=C(/C=C/c1ccc(Br)cc1)c1ccco1
EC50 [1]: 11.5 µM (active) | EC50 [2]: 10.9 µM (active)

Cc1cc(C)c(C#N)c(SCC(=O)c2cccs2)n1
EC50 [4]: 18 µM (active) | EC50 [5]: > 99 µM (inactive)

Nc1c(C(=O)C2CC2)sc2nc(-c3ccccc3)cc(C(F)(F)F)c12
EC50 [6]: 2.51 µM (active)

CCOc1ccc(C2CC(c3cccc(OC)c3OC)n3nnnc3N2)cc1Cl (stereo not given)
EC50 [6]: 2.66 µM (active)

CCC(=O)N1c2ccc(C)cc2C2=NN=C(S)NC21O (stereo not given)
IC50 [7]: > 20 µM (inactive)

CCOc1ccc(-c2n[nH]cc2Oc2cccc(OC)c2)c(O)c1
IC50 [7]: > 20 µM (inactive)

Cc1ccc(-n2nnnc2SCc2nc3sc(C)c(C)c3c(=O)[nH]2)cc1
EC50 [4]: > 99 µM (inactive) | EC50 [5]: > 99 µM (inactive)

Cn1c(N)c(C(=O)COC(=O)CCCc2nc3ccccc3s2)c(=O)n(C)c1=O
IC50 [3]: > 50 µM (not active)

Cc1ccc(-c2csc(NC(=O)c3cccc(N4C(=O)CCC4=O)c3)n2)o1
EC50 [6]: 3.78 µM (active)

O=C(CSc1nc(N2CCCCC2)nc(N2CCCCC2)n1)N1CCN(c2ccccc2)CC1
EC50 [6]: 5.36 µM (active)

COc1ccc(N2CCN(Cc3cc4c(cc3O)CCC4)CC2)cc1
CC50 [8]: > 40 µM (active)

COc1ccccc1N1CCN(C(=O)C(Sc2ccccc2)c2ccccc2)CC1 (stereo not given)
EC50 [6]: 4.93 µM (active)

Cc1cc(NS(=O)(=O)c2ccc(NC(=S)NC(=O)c3ccc(C(C)(C)C)cc3)cc2)no1
IC50 [3]: 26.1 µM (not active)

CC(C)COP(=O)(OCC(C)C)C(Nc1ccccc1)c1ccc2c(c1)OCO2 (stereo not given)
IC50 [3]: 11.4 µM (not active) | IC50 (H9c2): > 79 µM (inactive)

CCc1ccc(-c2nc(CN3CCC(C(=O)N4CCN(c5ccccn5)CC4)CC3)c(C)o2)cc1
EC50 [1]: 7.51 µM (active) | EC50 [2]: 7.28 µM (active)

CCn1c(/C=C/c2c(C)n(CC)c3ccccc23)nc2ccccc2c1=O
EC50 [4]: > 99 µM (inactive) | EC50 [5]: > 99 µM (inactive)

O=c1c2cc(NC(=S)NCCCN3CCC(Cc4ccccc4)CC3)ccc2nc2n1CCCCC2
EC50 [9]: 2.09 µM (active) | EC50 [10]: > 60 µM (not active) | AC50 [11]: 9.58 µM (active) | IC50 [7]: > 20 µM (inactive)

CC(=O)C(C[N+]1(C)CCCCC1)=NO
IC50 [12]: 3.4 µM (active)

COc1ccc(-c2nnc(SCC(=O)Nc3cc(F)ccc3C)o2)cc1
IC50 [7]: > 20 µM (inactive)

COc1ccc(Br)cc1/C=C(\C(=O)O)c1ccc(S(=O)(=O)N2CCCC2)s1
IC50 [12]: 8.63 µM (active)

O=C(NCc1ccco1)c1ccc2c(=O)n(Cc3ccco3)c(SCC(=O)N3CCCC3)nc2c1
IC50 [12]: 6.12 µM (active)

Cc1cc(/C=C2\C(=O)NC(=O)N(c3cccc(Br)c3)C2=O)c(C)n1C
EC50 [4]: > 99 µM (inactive) | EC50 [5]: > 99 µM (inactive) | EC50 [13]: 26.2 µM (active)

CCN(CC)S(=O)(=O)c1ccc(Nc2nc3ccccc3n3nnnc23)cc1
EC50 [1]: 22.1 µM (active) | EC50 [2]: 35.3 µM (active) | IC50 (H9c2): > 79 µM (inactive)

COC(=O)c1[nH]c2cc(OC)ccc2c1NC(=O)CN1CCN(c2cccc(C)c2)C(C)C1 (stereo not given)
CC50 [8]: 30.6 µM (active)

CN1CCN(Cc2nc3ccccc3c(=O)n2Cc2nc(-c3ccc4ccccc4c3)cs2)CC1
CC50 [8]: 6.44 µM (active) | EC50 [1]: 4.11 µM (active) | EC50 [2]: 4.02 µM (active) | AC50 [11]: 4.28 µM (active)

Cc1ccc(CCNC(=O)c2ccc3nc4ccccc4c(=O)n3c2)cc1
IC50 [12]: 14.2 µM (active)

O=C(N/N=C/c1cccc(OC2CSC2)c1)c1ccccc1O
IC50 [12]: 6.78 µM (active) | AC50 (Cytochrome P450 1A2): 3.16 µM (inconclusive)

CN(C)C(=O)c1cccc(-c2cccc(-c3nc(C(=O)NCc4ccccc4)cc4c3[C@@H](CCO)N([S@+]([O-])C(C)(C)C)C4)c2)c1
AC50 [14]: 1.17 µM (active) | AC50 [15]: 17.5 µM (active)

C[C@H](CO)N1C[C@H](C)[C@H](CN(C)S(=O)(=O)c2cccs2)Oc2ccc(NC(=O)Cc3ccccc3)cc2CC1=O
AC50 [16]: < 0.26 µM (active) | AC50 [17]: < 0.26 µM (active)

C/C(=N\NC(=O)CC(C)C)c1c(C(F)(F)F)nn(-c2nc3ccccc3s2)c1O
CC50 [8]: 37.4 µM (active)

C[C@H](CO)N1C[C@H](C)[C@H](CN(C)C(=O)[C@H](C)c2ccccc2)OCc2ccccc2-c2c(n(C)c3ccccc23)C1=O
AC50 [14]: 4.15 µM (active) | AC50 [15]: 34.4 µM (active)

Cc1ccccc1S(=O)(=O)N1CC(=O)N2[C@H](C1)[C@@H](c1ccc(C#Cc3ccccc3)cc1)[C@@H]2CO
AC50 [14]: 3.52 µM (active) | AC50 [15]: 15.8 µM (active)

O=[N+]([O-])c1ccc(/C=C/c2ccc3cccc(O)c3n2)cc1
EC50 [4]: > 99 µM (inactive) | EC50 [5]: > 99 µM (inactive)
